Publication PMC3022755, “HP1 Recruits Activity-Dependent Neuroprotective Protein to H3K9me3 Marked Pericentromeric Heterochromatin for Silencing of Major Satellite Repeats” (PLoS ONE, 2011)
Where no end group is shown, it is not given here. [ ]: non-standard residue; d: D form. Lys(Me3) = C[N+](C)(C)CCCC[C@H](N)C(=O)O

Columns and labels:
[1] = test system: H3K9me3 peptide; assay: H3K9me3 peptide pulldown with mutant HP1β; assay type: binding; settings: H3K9me3 peptides on magnetic beads; with ADNP-FLAG; western blot
[2] = test system: wild type FLAG-tagged ADNP; assay: H3K9me3 peptide pulldown, recruitment of ADNP by mutant HP1β; assay type: binding; settings: compared to wild type HP1β; wild type FLAG-tagged ADNP in TNT reticulocyte extract; western blot
[3] = test system: PxVxL; settings: ref [27]; cited from earlier work
Excerpt: (§1) We analyzed this recombinant, mutant HP1βprotein in H3K9me3 peptide pulldown experiments with wild type FLAG-tagged ADNP expressed in TNT reticulocyte extract (Figure 5D). W170A mutation had no effect on HP1β bi ...

[4] = test system: HP1 dimerization and H3K9me3; settings: ref [27]; cited from earlier work
Excerpt: as §1

[5] = test system: HP1 isoform proteins; assay type: binding, human
[6] = test system: three isoforms of HP1, HP1α HP1β and HP1γ, and CDYL1; assay: H3 peptide pulldown of HeLa S3 nuclear extract, MS/MS identification; assay type: binding; settings: SDS-PAGE
[7] = test system: ADNP; assay: H3 peptide pulldown of HeLa S3 nuclear extract, western blot; assay type: binding; settings: immobilized H3 (aa 1-21) peptides on magnetic beads, monoclonal anti-ADNP
[8] = test system: FLAG-tagged ADNP; assay: H3 peptide pulldown with TNT-expressed FLAG-tagged ADNP; assay type: binding; settings: TNT reticulocyte extract, western blot
[9] = test system: recombinant HP1β; assay: Fluorescence polarization binding assay; parameters: species or system human; settings: fluorescein-labeled peptide, averaged from three independent titration reactions
[10] = test system: pericentromeric heterochromatin in NIH3T3 cells; assay: Localization of CFP-ADNP constructs in living NIH3T3 cells; assay type: cell-based, mouse; settings: transient co-expression with RFP-HP1β; unfixed, living cells of low expression level; confocal
[11] = test system: pericentromeric heterochromatin in NIH3T3 cells; assay: Localization of YFP-ADNP fusion proteins in living NIH3T3 cells; assay type: cell-based, mouse; settings: inducible stable NIH3T3 lines, unfixed; for localization to pericentromeric heterochromatin: Hoechst 33342
[12] = test system: H3K9me3 peptide; assay type: binding

Molecule: HP1β W170A: recombinant His6-HP1β with tryptophan 170 mutated to alanine
- HP1β binding to H3K9me3 peptide [1]: no effect on HP1β binding to the H3K9me3 peptide
- recruitment of ADNP to H3K9me3 in presence of mutant HP1β [2]: severely impaired
- HP1-PxVxL interaction [3]: abolish HP1-PxVxL interaction
- HP1 dimerization and H3K9me3 binding [4]: without affecting HP1 dimerization and H3K9me3 binding

Molecule: H3K9me3: H3 (aa 1-21) peptide trimethylated at lysine 9, used for pulldown
- recruitment of HP1 isoform proteins to peptide [5]: concomitant with recruitment of the different HP1 isoform proteins to the H3K9me3 matrix
- proteins specifically interacting with H3 tail depending on K9me3 [6]: several known H3K9me3 interaction partners like the three isoforms of HP1
- enrichment of ADNP on peptide matrix [7]: specific enrichment of ADNP exclusively on the H3K9me3 matrix
- binding of ADNP to peptide ([8]; co-incubated with recombinant HP1α): bound specifically to the H3K9me3 peptide
- binding of ADNP to peptide ([8]; co-incubated with recombinant HP1β): bound specifically to the H3K9me3 peptide
- binding of ADNP to peptide ([8]; co-incubated with recombinant HP1γ): bound specifically to the H3K9me3 peptide
- binding of ADNP to peptide ([8]; without HP1): did not bind to any of the differentially loaded beads

Molecule: EDDSYEAR[Lys(Me3)]SFLTKY [ADNPK767me3 (FP peptide), ADNPK767me3 peptide used for FP measurements]
- HP1 binding [9]: does not bind
- HP1 binding ([9]; listed as methylated peptide spanning the ADNP ARKS region): did not detect binding

B1: CFP-ADNP(701-846): CFP fusion of the ADNP homeodomain alone, containing NLS (protein, UniProt Q9Z103 701-846, looked up, fragment)
chain: APSRLNQSPGLAPVKRTYEQMEFPLLKKRKLEEDADSPSCFEEKPEEPVVLALDPKGHEDDSYEARKSFLTKYFNKQPYPTRREIEKLAASLWLWKSDIASHFSNKRKKCVRDCEKYKPGVLLGFNMKELNKVKHEMDFDAEWLFE
modifications: CFP fusion
notes: CFP fusion of the ADNP homeodomain alone, containing NLS
- localization to pericentromeric heterochromatin [10]: co-localized with HP1β

B2: K767R: YFP-ADNP fusion protein with K767R mutation in ARKS motif (protein, UniProt Q9Z103 1-1108, looked up, variant K767R)
Activity-dependent …: MFQLPVNNLGSLRKARKTVKKILSDIGLEYCKEHIEDFKQFEPNDFYLKNTTWEDVGLWDPSLTKNQDYRTKPFCCSACPFSSKFFSAYKSHFRNVHSEDFENRILLNCPYCTFNADKKTLETHIKIFHAPNSSAPSSSLSTFKDKNKNDGLKPKQADNVEQAVYYCKKCTYRDPLYEIVRKHIYREHFQHVAAPYIAKAGEKSLNGAVSLGTNAREECNIHCKRCLFMPKSYEALVQHVIEDHERIGYQVTAMIGHTNVVVPRAKPLMLIAPKPQDKKGMGLPPRISSLASGNVRSLPSQQMVNRLSIPKPNLNSTGVNMMSNVHLQQNNYGVKSVGQSYGVGQSVRLGLGGNAPVSIPQQSQSVKQLLPSGNGRSFGLGAEQRPPAAARYSLQTANTSLPPGQVKSPSVSQSQASRVLGQSSSKPPPAATGPPPSNHCATQKWKICTICNELFPENVYSVHFEKEHKAEKVPAVANYIMKIHNFTSKCLYCNRYLPTDTLLNHMLIHGLSCPYCRSTFNDVEKMAAHMRMVHIDEEMGPKTDSTLSFDLTLQQGSHTNIHLLVTTYNLRDAPAESVAYHAQNNAPVPPKPQPKVQEKADVPVKSSPQAAVPYKKDVGKTLCPLCFSILKGPISDALAHHLRERHQVIQTVHPVEKKLTYKCIHCLGVYTSNMTASTITLHLVHCRGVGKTQNGQDKTNAPSRLNQSPGLAPVKRTYEQMEFPLLKKRKLEEDADSPSCFEEKPEEPVVLALDPKGHEDDSYEARRSFLTKYFNKQPYPTRREIEKLAASLWLWKSDIASHFSNKRKKCVRDCEKYKPGVLLGFNMKELNKVKHEMDFDAEWLFENHDEKDSRVNASKTVDKKHNLGKEDDSFSDSFEHLEEESNGSGSPFDPVFEVEPKIPSDNLEEPVPKVIPEGALESEKLDQKEEEEEEEEEDGSKYETIHLTEEPAKLMHDASDSEVDQDDVVEWKDGASPSESGPGSQQISDFEDNTCEMKPGTWSDESSQSEDARSSKPAAKKKATVQDDTEQLKWKNSSYGKVEGFWSKDQSQWENASENAERLPNPQIEWQNSTIDSEDGEQFDSMTDGVADPMHGSLTGVKLSSQQA
modifications: YFP fusion
notes: YFP-ADNP fusion protein with K767R mutation in ARKS motif
- localization to pericentromeric heterochromatin [11]: no effect on ADNP localization

B3: V821E: YFP-ADNP fusion protein with V821E mutation in PGVLL motif (protein, UniProt Q9Z103 1-1108, looked up, variant V821E)
Activity-dependent …: MFQLPVNNLGSLRKARKTVKKILSDIGLEYCKEHIEDFKQFEPNDFYLKNTTWEDVGLWDPSLTKNQDYRTKPFCCSACPFSSKFFSAYKSHFRNVHSEDFENRILLNCPYCTFNADKKTLETHIKIFHAPNSSAPSSSLSTFKDKNKNDGLKPKQADNVEQAVYYCKKCTYRDPLYEIVRKHIYREHFQHVAAPYIAKAGEKSLNGAVSLGTNAREECNIHCKRCLFMPKSYEALVQHVIEDHERIGYQVTAMIGHTNVVVPRAKPLMLIAPKPQDKKGMGLPPRISSLASGNVRSLPSQQMVNRLSIPKPNLNSTGVNMMSNVHLQQNNYGVKSVGQSYGVGQSVRLGLGGNAPVSIPQQSQSVKQLLPSGNGRSFGLGAEQRPPAAARYSLQTANTSLPPGQVKSPSVSQSQASRVLGQSSSKPPPAATGPPPSNHCATQKWKICTICNELFPENVYSVHFEKEHKAEKVPAVANYIMKIHNFTSKCLYCNRYLPTDTLLNHMLIHGLSCPYCRSTFNDVEKMAAHMRMVHIDEEMGPKTDSTLSFDLTLQQGSHTNIHLLVTTYNLRDAPAESVAYHAQNNAPVPPKPQPKVQEKADVPVKSSPQAAVPYKKDVGKTLCPLCFSILKGPISDALAHHLRERHQVIQTVHPVEKKLTYKCIHCLGVYTSNMTASTITLHLVHCRGVGKTQNGQDKTNAPSRLNQSPGLAPVKRTYEQMEFPLLKKRKLEEDADSPSCFEEKPEEPVVLALDPKGHEDDSYEARKSFLTKYFNKQPYPTRREIEKLAASLWLWKSDIASHFSNKRKKCVRDCEKYKPGELLGFNMKELNKVKHEMDFDAEWLFENHDEKDSRVNASKTVDKKHNLGKEDDSFSDSFEHLEEESNGSGSPFDPVFEVEPKIPSDNLEEPVPKVIPEGALESEKLDQKEEEEEEEEEDGSKYETIHLTEEPAKLMHDASDSEVDQDDVVEWKDGASPSESGPGSQQISDFEDNTCEMKPGTWSDESSQSEDARSSKPAAKKKATVQDDTEQLKWKNSSYGKVEGFWSKDQSQWENASENAERLPNPQIEWQNSTIDSEDGEQFDSMTDGVADPMHGSLTGVKLSSQQA
modifications: YFP fusion
notes: YFP-ADNP fusion protein with V821E mutation in PGVLL motif
- localization to pericentromeric heterochromatin [11]: strong reduction of the ADNP signal at regions of pericentromeric heterochromatin
- residual signal at pericentromeric heterochromatin ([11]; in all cells analyzed): faint but significant signal

B4: K767R mutant ADNP: FLAG-tagged ADNP, lysine 767 within the ARKS motif changed to arginine (protein, UniProt Q9Z103 1-1108, looked up, variant K767R)
Activity-dependent …: MFQLPVNNLGSLRKARKTVKKILSDIGLEYCKEHIEDFKQFEPNDFYLKNTTWEDVGLWDPSLTKNQDYRTKPFCCSACPFSSKFFSAYKSHFRNVHSEDFENRILLNCPYCTFNADKKTLETHIKIFHAPNSSAPSSSLSTFKDKNKNDGLKPKQADNVEQAVYYCKKCTYRDPLYEIVRKHIYREHFQHVAAPYIAKAGEKSLNGAVSLGTNAREECNIHCKRCLFMPKSYEALVQHVIEDHERIGYQVTAMIGHTNVVVPRAKPLMLIAPKPQDKKGMGLPPRISSLASGNVRSLPSQQMVNRLSIPKPNLNSTGVNMMSNVHLQQNNYGVKSVGQSYGVGQSVRLGLGGNAPVSIPQQSQSVKQLLPSGNGRSFGLGAEQRPPAAARYSLQTANTSLPPGQVKSPSVSQSQASRVLGQSSSKPPPAATGPPPSNHCATQKWKICTICNELFPENVYSVHFEKEHKAEKVPAVANYIMKIHNFTSKCLYCNRYLPTDTLLNHMLIHGLSCPYCRSTFNDVEKMAAHMRMVHIDEEMGPKTDSTLSFDLTLQQGSHTNIHLLVTTYNLRDAPAESVAYHAQNNAPVPPKPQPKVQEKADVPVKSSPQAAVPYKKDVGKTLCPLCFSILKGPISDALAHHLRERHQVIQTVHPVEKKLTYKCIHCLGVYTSNMTASTITLHLVHCRGVGKTQNGQDKTNAPSRLNQSPGLAPVKRTYEQMEFPLLKKRKLEEDADSPSCFEEKPEEPVVLALDPKGHEDDSYEARRSFLTKYFNKQPYPTRREIEKLAASLWLWKSDIASHFSNKRKKCVRDCEKYKPGVLLGFNMKELNKVKHEMDFDAEWLFENHDEKDSRVNASKTVDKKHNLGKEDDSFSDSFEHLEEESNGSGSPFDPVFEVEPKIPSDNLEEPVPKVIPEGALESEKLDQKEEEEEEEEEDGSKYETIHLTEEPAKLMHDASDSEVDQDDVVEWKDGASPSESGPGSQQISDFEDNTCEMKPGTWSDESSQSEDARSSKPAAKKKATVQDDTEQLKWKNSSYGKVEGFWSKDQSQWENASENAERLPNPQIEWQNSTIDSEDGEQFDSMTDGVADPMHGSLTGVKLSSQQA
modifications: FLAG tag
notes: FLAG-tagged ADNP, lysine 767 within the ARKS motif changed to arginine
- binding of ADNP protein to H3K9me3 peptide [12]: bound to H3K9me3 peptide in a HP1β dependent manner
